Where two headings read alike, the source gives them in different places.
Legend:
[1] = tested on: MCF-7 breast adenocarcinoma cells; experiment: MTT cell viability assay, MCF-7; type: cell-based, human
Experimental: (§1) The cell culture was made in flasks containing the medium appropriate to cell proliferation and allowing cell adhesion.
For this, the cells were seeded in 200 μl of complete cell medium in 96-well plates.
Cells were left to adhere for 24 h, followed by the addition of various dilutions in medium (200 μl) of the test compound. The test compound was first solubilized in DMSO and then in the cell medium and added to the cells at concentrations 1-100 μM. The final DMSO concentrations in the medium were lower than 0.5%. After 24 h and 72 h incubation, 37° C./5% CO2, the medium was substituted by 200 μl of the MTT solution (0.5 mg/ml in phosphate buffer—PBS). After 3-4 h incubation, the MTT solution was removed and the formazan crystals formed by the viable cells were dissolved in DMSO (200 μl). […] The cytotoxicity of the test compound was quantified calculating the drug concentration that inhibits the growth of 50% of cells (IC50) (GraphPad Prism software). The assessment was carried out with at least two independent experiments, each comprising six replicates per concentration.
Upon reaching the required confluence, the cells were harvested through addition of a 0.05% trypsin-EDTA solution (Gibco®). […] For this, the cells were seeded in 200 μl of complete cell medium in 96-well plates. […] Cells were left to adhere for 24 h, followed by the addition of various dilutions in medium (200 μl) of the test compound. The test compound was first solubilized in DMSO and then in the cell medium and added to the cells at concentrations 1-100 μM. The final DMSO concentrations in the medium were lower than 0.5%. […] The cytotoxicity of the test compound was quantified calculating the drug concentration that inhibits the growth of 50% of cells (IC50) (GraphPad Prism software). The assessment was carried out with at least two independent experiments, each comprising six replicates per concentration.

[2] = tested on: A2780 ovarian carcinoma cells; experiment: MTT cell viability assay, A2780; type: cell-based, human; conditions: 72 h incubation, read-out: IC50 after a 72 h incubation, A2780
Experimental: (§2) The cultures of human breast (MDA-MB-231; ATCC) and ovarian (A2780, ATCC) carcinoma cell lines, were carried out in DMEM (Gibco) medium containing GlutaMax I (MDA-MB-231) or RPMI (A2780) and were completed with 10% FBS and 1% penicillin-streptomycin and kept at 37° C. in a humidified atmosphere containing 5% de CO2.
as §1
(§3) Upon reaching the required confluence, the cells were harvested through addition of a 0.05% trypsin-EDTA solution (Gibco®). […] For this, the cells were seeded in 200 μl of complete cell medium in 96-well plates. Cell density was 2×10^4 viable cells (MDA-MB-231 and A2780) per well.
(§4) Cells were left to adhere for 24 h, followed by the addition of various dilutions in medium (200 μl) of the test compound. The test compound was first solubilized in DMSO and then in the cell medium and added to the cells at concentrations 1-100 μM. The final DMSO concentrations in the medium were lower than 0.5%. After 24 h and 72 h incubation, 37° C./5% CO2, the medium was substituted by 200 μl of the MTT solution (0.5 mg/ml in phosphate buffer—PBS). After 3-4 h incubation, the MTT solution was removed and the formazan crystals formed by the viable cells were dissolved in DMSO (200 μl). Cell viability was assessed measuring the absorbance at 570 nm, using a plate spectrophotometer.
(§5) The cytotoxicity of the test compound was quantified calculating the drug concentration that inhibits the growth of 50% of cells (IC50) (GraphPad Prism software). The assessment was carried out with at least two independent experiments, each comprising six replicates per concentration. Dose-response curves of cell viability, after a 72 h incubation, are represented in the graphs of the FIGS. 4a and 4b.
Upon reaching the required confluence, the cells were harvested through addition of a 0.05% trypsin-EDTA solution (Gibco®). […] For this, the cells were seeded in 200 μl of complete cell medium in 96-well plates. […]

[3] = tested on: MDA-MB-231 human breast carcinoma cells; experiment: MTT cell viability assay, MDA-MB-231; type: cell-based; conditions: 72 h incubation, read-out: IC50 after a 72 h incubation, MDA-MB-231
Experimental: as §2, §1, §3, §4, §5

[4] = tested on: human cells of MCF-7 breast cancer; conditions: 24 h incubation, versus untreated control cells (100%)
From the text: The intrinsic pathway is triggered by intracellular or extracellular stress. The signals that are transduced in response to these stimuli converge mainly to the mitochondria. This organelle integrates the cell death stimuli, inducing mitochondrial permeabilization and consequent release of pro-apoptotic molecules present therein.

MCF-7 cancer cell line [5] = conditions: 48 h of incubation, 10 μM
From the text: This assay is widely used to determine if cells are viable, apoptotic, or necrotic through differences in plasma membrane integrity and permeability. All in all, Annexin V/PI is a commonly used approach for studying cell death (Rieger et al. 2011).
Annexin V a marker of early apoptosis. […] Cisplatin was used as a positive control since it is known to induce apoptosis.

MCF-7 cancer cell line [6] = conditions: immunofluorescence, versus control cells
From the text: In this immunofluorescence assay, Alexa Fluor 488® phalloidin, which is a high-affinity filamentous actin (F-actin) probe conjugated to the green-fluorescent Alexa Fluor® 488 dye was used. In order to obtain nuclear staining DAPI (blue) was used (FIG. 9).

glioma U87 cells = conditions: literature value (J. Biol. Chem. 1997, 272:14041-14044); read-out: value found in the literature for the glioma line; cited from earlier work
[7] = 24 h incubation, read-out: IC50 after a 24 h incubation, MCF-7
[8] = 72 h incubation, read-out: IC50 after a 72 h incubation, MCF-7

Row | Compound | IC50 [1, 7] | IC50 [1, 8] | IC50 [2] | IC50 [3] | expression of catalase and SMAC diablo proteins [4] | percentage of Annexin V stained cells in comparison to the control (MCF-7 cancer cell line [5]) | type of cell death induced (MCF-7 cancer cell line [5]) | effect on cytoskeleton (F-actin filaments) (MCF-7 cancer cell line [6]) | IC50 (glioma U87 cells)
1 | (2,2′-bipyridine-4,4′-diylbis{methylene}bis(2-{2-(2-hydroxypropanoyloxy)poly(lactic acid)-yl}propanoate)-k^2N,N′)(triphenylphosphane)(η^5-cyclopentadienyl)ruthenium(II) triflate [Compound 5] | 4.25 ± 1.15 µM | 4.09 ± 1.97 µM | 3.4 ± 1.3 µM | 2.7 ± 0.55 µM | decrease | increase | apoptosis | cytoskeleton loses its organization | –
2 | [(1,1′-{1,1′-(1,1′-{2,2′-Bipyridine-4,4′-diylbis(methylene)}bis(oxy)bis(1-oxopropane-2,1-diyl))bis(poly(lactic acid)-yl))}bis(oxy)bis(1-oxopropane-2,1-diyl)di(2S,3S,4S,5R,6R)-3,4,5,6-tetrahydroxyoxane-2-carboxylate)-k^2N,N′](triphenylphosphane)(η^5-cyclopentadienyl)-ruthenium(II) triflate [Compound 6] | 5 ± 1.65 µM | 4.62 ± 1.15 µM | 2.2 ± 0.85 µM | 5.96 ± 3.25 µM | decrease | increase | apoptosis | cytoskeleton loses its organization | –
3 | N.N.[Cl][Pt][Cl] [Cisplatin, reference compound] | – | 28 ± 6 µM | 2 ± 0.1 µM | 39 ± 5 µM | – | – | – | – | 130 ± 53 µM

— patent publication US11168179B2, “Macromolecular transition metal complexes for treatment of cancer and process for their preparation” (FACULDADE DE CIÉNCIAS DA UNIVERSIDADE DE LISBOA, priority 2014, dated 2021)
